Assay results reported in patent US11040958B2, “Triazole antimicrobial derivative, pharmaceutical composition and use thereof” (priority 2017, dated 2021).

Key:
[1] = In vitro metabolic stability in rat plasma; type: in vitro ADME; conditions: rat, plasma; 37°C, compound 10 μM; read-out: Rat plasma T1/2
[2] = Pharmacokinetics after single intravenous administration in rats (plasma voriconazole); conditions: both, SD, rat, in vivo, iv, 2.5 mg/kg
Summary of the method: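 SD rats (180–220 g, 3 male/3 female per group) given single tail-vein dose of 2.5 mg/kg (as voriconazole). Plasma voriconazole measured in blood sampled at multiple time points post-dose.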

CC(OC(=O)SCCO)[n+]1cnn(C[C@](O)(c2ccc(F)cc2F)[C@@H](C)c2ncncc2F)c1 (stereo partly drawn) [Compound 16037]
half-life at 10 µM [1]: 7.65 ± 0.78 min | AUClast [2]: 9120 ± 3254 ng·h/mL | T1/2 [2]: 148 ± 45 min
